Reference: patent US6214859A, “Ethylamine derivatives” (Fujimoto Brothers Co., Ltd., priority 1997, dated 2001)
pIC50: −log10 of the molar value.

Experiments:
[1] = tested on: rats reduced learning ability by tetrabenazine; assay: Conditioned avoidance task in the shuttle box (tetrabenazine-treated rats); assay type: in vivo, rat; settings: tetrabenazine 1 mg/kg s.c., significance and direction
How it was run: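 Male and female rats (200–220 g) were trained in a shuttle box (light/buzzer conditioned stimulus, 100 trials/day for 5 days). Tetrabenazine 1 mg/kg s.c. was given 1 h before testing, with compound at 1, 2, 2.5 or 5 mg/kg s.c. given together with tetrabenazine. CARs, EFs and IRs were counted automatically and analysed by multi-way ANOVA.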

[2] = tested on: monoamine release from synaptosomes; assay: Releasing effect of monoamines in synaptosomes of the rat brain; settings: compound 5×10^-5 M with tyramine 10^-6 M (FIG. 9)
Description: Synaptosomes were prepared as follows. Fresh striatum (for determination of dopamine) and fresh forebrain (for determination of noradrenaline and serotonin) were removed from listar rats of 8 weeks old (NIPPON S. L. C.). Ten times volumes of ice-cold 0.35 M sucrose (pH 7.4) were added in the brain tissue and homogenized using glass homogenizer with teflon pestle which was revolted by motors. Thereafter the homogenate was centrifuged at 900×g for 10 min at 4° C. and the supernatant was recentrifuged at 11,500×g for 20 min. The pellet was resuspeded in ice-cold buffer. Final concentration of synaptosomes was prepared to 0.6 mg protein/ml. Protein concentration was determined by method described in Journal of Biological Chemistry, 193, 265-275 (1951) and the bovine serum albumin was used as an authentic standard. The release of monoamine from synaptosomes was determined by the following procedure based on the method described in Journal of Pharmacology and Experimental Therapeutics, 241, 27-33 (1987). The solution of 0.6 mg/ml of synaptosomes was preincubated for 5 min at 35° C. under the oxygenated (95% O2 and 5% CO2) condition. Thereafter 25 nM ^3 H-monoamines were added in synaptosomal solution and the solutions were incubated for 5 min at 35° C. […]

α1 receptor = assay: Affinity to α1 receptor; design: species or system rat; settings: read-out: Affinity to α1 receptor (MIC50; mole concentration for 50% inhibition of binding); 0.25 nM ^3H-prazocin; 90 min
Description: The solution of receptor was prepared as follows. As soon as rats were decapitated, brain was removed and its weight was measured. Its brain was homogenized in ten times volumes of ice-cold 0.35 M sucrose (pH 7.4) by glass homogenizer with teflon pestle which was revolted by motors. Thereafter, the homogenate was centrifuged at 4° C. at 900×g for 10 min and the supernatant was, furthermore, recentrifuged at 4° C. at 22,000×g for 20 min. The precipitate was suspended by addition of 5 mM phosphate buffer solution (pH 7.4). After the suspension was incubated at 37° C. for 30 min, the suspension was recentrifuged at 4° C. at 22,000×g for 20 min. The precipitate was resuspended by addition of 10 ml of 5 mM phosphate buffer solution (pH 8.0). The precipitate was used as the solution of receptor.
^3 H-prazocin was used as a ligand. 0.25 nM ^3 H-prazocin in 5 mM phosphate buffer (pH 8.0), the compound of this invention and the solution of receptor were added in tube and the mixture were incubated at 25° C. for 90 min. In addition, the […] binding was shown by binding value of ^3 H-prazocin under the coexistence with 0.1 μM prazocin. The binding reaction was carried out as follows. After ^3 H-prazocin (binding type: B) bound to receptor using glassfiberfilter (pore size: 0.5 μm, Whatman GF/C.) and free type of prazocin (free type: F) were separated with B/F separator (Brandel, USA), only the binding type of ^3 H-prazocin was collected. The binding type of ^3 H-prazocin absorbed to glass-fiber filter was washed with ice-cold saline solution and was remove to vial. After 10 ml of scintillation cocktail was added in it, the radioactivity was determined. From the binding inhibition rate of α1 receptor and ligand, affinity of the compounds of this invention to α1 receptor was measured.
If affinity of certain compound to a receptor is high, the binding ligand and receptor is inhibited.

D1 receptor = molecular target: T1, D1 receptor (Rattus norvegicus, UniProt P18901); assay: Affinity to D1 receptor; assay type: binding
T1 construct: The precipitate was used as the solution of receptor; from tissue; host or cells: rat brain (whole) crude membranes
T1 sequence (P18901 whole entry): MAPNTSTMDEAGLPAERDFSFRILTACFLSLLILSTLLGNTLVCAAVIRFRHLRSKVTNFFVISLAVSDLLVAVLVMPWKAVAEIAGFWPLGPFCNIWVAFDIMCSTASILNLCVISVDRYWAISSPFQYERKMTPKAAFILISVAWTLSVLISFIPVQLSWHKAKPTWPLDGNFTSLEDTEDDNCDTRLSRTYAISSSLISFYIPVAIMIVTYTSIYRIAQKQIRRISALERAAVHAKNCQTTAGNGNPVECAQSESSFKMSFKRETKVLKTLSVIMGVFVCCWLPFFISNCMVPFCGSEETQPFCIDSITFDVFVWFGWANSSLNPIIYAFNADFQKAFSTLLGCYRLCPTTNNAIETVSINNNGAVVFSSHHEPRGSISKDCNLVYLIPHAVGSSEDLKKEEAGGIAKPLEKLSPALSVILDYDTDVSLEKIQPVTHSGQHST

5-HT2 receptor = molecular target: T2, 5-HT2 receptor (Rattus norvegicus, UniProt P14842); assay: Affinity to 5-HT2 receptor; assay type: binding
T2 construct: The precipitate was used as the solution of receptor; from tissue; host or cells: rat brain (whole) crude membranes
T2 sequence (P14842 whole entry): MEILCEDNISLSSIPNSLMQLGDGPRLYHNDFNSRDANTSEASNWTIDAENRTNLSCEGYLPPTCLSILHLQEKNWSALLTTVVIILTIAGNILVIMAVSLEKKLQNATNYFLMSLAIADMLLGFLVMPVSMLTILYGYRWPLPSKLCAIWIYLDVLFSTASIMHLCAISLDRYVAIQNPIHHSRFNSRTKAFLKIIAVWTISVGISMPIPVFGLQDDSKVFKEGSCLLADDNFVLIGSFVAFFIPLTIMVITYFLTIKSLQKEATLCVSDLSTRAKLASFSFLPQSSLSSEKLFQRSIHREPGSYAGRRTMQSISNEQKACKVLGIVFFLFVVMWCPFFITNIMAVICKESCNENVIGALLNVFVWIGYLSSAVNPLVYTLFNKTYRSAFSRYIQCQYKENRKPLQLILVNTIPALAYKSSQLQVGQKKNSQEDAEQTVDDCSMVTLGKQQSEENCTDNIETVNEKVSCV

5-HT1 receptor = assay: Affinity to 5-HT1 receptor; design: species or system rat; settings: read-out: Affinity to 5-HT1 receptor (MIC50; mole concentration for 50% inhibition of binding); 2 nM ^3H-5-HT
α2 receptor = assay: Affinity to α2 receptor; design: species or system rat; settings: read-out: Affinity to α2 receptor (MIC50; mole concentration for 50% inhibition of binding); 0.7 nM ^3H-rauwolscine
D2 receptor = assay: Affinity to D2 receptor; design: species or system rat; settings: read-out: Affinity to D2 receptor (MIC50; mole concentration for 50% inhibition of binding); 2.0 nM spiperone

Row | Compound | Condition Avoidance Reflex (CARs) ([1]; 1 mg/kg s.c.) | Escape Failures (EFs) ([1]; 1 mg/kg s.c.) | antagonism against the effect of tyramine [2] | pIC50 (α1 receptor) | pIC50 (D1 receptor) | Condition Avoidance Reflex (CARs) ([1]; 1 mg/kg s.c., Hydrochloride) | Condition Avoidance Reflex (CARs) ([1]; 2.5 mg/kg s.c.) | Escape Failures (EFs) ([1]; 2.5 mg/kg s.c.) | Condition Avoidance Reflex (CARs) ([1]; 5 mg/kg s.c.) | Escape Failures (EFs) ([1]; 5 mg/kg s.c.) | Intersignal Reactions (IRs) ([1]; 5 mg/kg s.c.) | pIC50 (5-HT2 receptor) | pIC50 (5-HT1 receptor) | pIC50 (α2 receptor) | pIC50 (D2 receptor)
1 | CCCNC(CCC)Cc1ccc2c(c1)OCO2.Cl (stereo not drawn) [Compound No. 27, 1-(1,3-Benzodioxol-5-yl)-2-propylaminopentane Hydrochloride] | *** .Arrow-up bold. | *** .dwnarw. | Tyramine antagonistic property |  |  |  |  |  |  |  |  |  |  |  | 
2 | CCCNC(CCC)Cc1c[nH]c2ccccc12.Cl (stereo not drawn) [Compound No. 20, 1-(Indol-3-yl)-2-propylaminopentane Hydrochloride] |  |  |  | 4.10 | < 5.00 | * .Arrow-up bold. | **** .Arrow-up bold. | **** .dwnarw. | **** .Arrow-up bold. | * .dwnarw. | * .dwnarw. | < 5.00 | 5.15 | 6.05 | < 5.00
